The results in this text go back to patent US20190076466A1, “REDUCED SODIUM POLOXAMER-188 FORMULATIONS AND METHODS FOR USE” (MAST THERAPEUTICS, INC., priority 2015, published 2019).

The series is described as follows: osmolality by vapor pressure osmometry. The conditions noted are these: no poloxamer.

Experimental: The osmolality of LCMF poloxamer 188 in water was evaluated over the range 25 mg/mL to 400 mg/mL using vapor pressure osmometry (Table 7). […] Any solutions with osmolality values below 270 mOsm/kg or above 300 mOsm/kg are considered hypotonic and hypertonic respectively.
Drug substance was added to sterile water for injection at 6 concentrations ranging from 15% to 40% and the osmolality values of the solutions were recorded. Sodium chloride was then added to sterile water for injection to make six sodium chloride solutions with osmolality values matching those of the poloxamer 188 solutions. An isotonic 15% poloxamer 188 solution was used as a comparator.

As to `[Cl-].[Na+]` [NaCl, Sodium chloride], the Osmolality is on record as 116 mOsm/kg (0.36% (w/w) NaCl in SWFI); 224 mOsm/kg (0.74% (w/w) NaCl in SWFI); 432 mOsm/kg (1.35% (w/w) NaCl in SWFI); 995 mOsm/kg (3.13% (w/w) NaCl in SWFI); 690 mOsm/kg ([…] (w/w) NaCl in SWFI).
